Earlier results, collected in patent publication US6774247B2, “Aqueous solution of ascorbic acid and method for producing same” (AquaNova German Solubilisate Technology (AGT) GmbH, priority 2001, dated 2004).

Details: aqueous ascorbic acid solution, after 30 days

## O=C1O[C@H]([C@@H](O)CO)C(O)=C1O [ascorbic acid]
  added ascorbic acid still present: about 70%
